# Assay results reported in patent US8802633B1, “Autophagy-inducing peptide analogs” (Board of Regents, The University of Texas System, priority 2013, dated 2014).
# No end group written: not given here.
# Columns and labels:
# [1] = test system: p62; test: western blot detection of p62 (a protein degraded by autophagy); type: cell-based; settings: 10 micomolar peptide, compared to 10 micomolar Tat-Beclin 1 compound
# Procedure: (§1) To further assess the components of the beclin1 peptide required for autophagy-inducing activity, a series of shorter peptides were developed. Activity was measured by biochemical autophagy assays including western blot detection of p62 (a protein degraded by autophagy) and western blot detection of the conversion of LC3-I into LC3-II (the lipidated autophagosome-associated form of LC3).
# [2] = test system: LC3; test: western blot detection of the conversion of LC3-I into LC3-II; type: cell-based; settings: 10 micomolar peptide, compared to 10 micomolar Tat-Beclin 1 compound
# Procedure: as §1
substance,measurement,setting,value
Tat-GG-VFNATFEIWHD (Tat-GGVFNATFEIWHD) [tat protein transduction domain linked through a diglycine linker to Beclin 1 residues 269-279 with H275E and S279D],p62 degradation,[1],increased p62 degradation
same,LC3-II conversion,[2],increased LC3-II conversion
